Assay results published in patent US4251528A, “Phthalazin-4-ylacetic acid derivatives” (Imperial Chemical Industries Limited, priority 1977, dated 1981).

Columns and labels:
aldose reductase = target: T1, aldose reductase (Rattus norvegicus, UniProt P07943); assay: streptozotocin diabetic rat test, residual sorbitol levels in tissues; assay type: in vivo; conditions: oral dosing at 10 mg./kg. for 5 days
T1 construct: the eye lenses and sciatic nerves are removed; from tissue; host or cells: rat sciatic nerve (and eye lens), enzyme acting in the living animal
Description: Thus, rats are made diabetic by dosing with streptozotocin and are then dosed daily with the test compound for 5 days. The animals are then killed and the eye lenses and sciatic nerves are removed. After a standard work-up procedure the residual sorbitol levels in each tissue are determined by gas liquid chromatography after conversion to the poly trimethylsilyl derivatives. Inhibition of aldose reductase in vivo is then assessed by comparing the residual sorbitol levels in tissues from the dosed diabetic group of rats with those of an undosed group of diabetic rats and an undosed, normal group of rats.
Alternatively, a modified test may be used in which the streptozotocin induced diabetic rats are dosed daily with test compound for two days. After 2-4 hours from the final dose the animals are killed and the sciatic nerves are removed and assessed for residual sorbitol levels as described above.
Active compounds in either of these tests reduce residual sorbitol levels to levels which are similar to those of normal, undosed rats. […] No overt toxic or other undesirable effects were detected with compounds of formula I at 100 mg./kg. in the above tests.

[1] = target: T2, purified aldose reductase isolated from bovine lenses (Bos taurus, UniProt P16116); assay: in vitro inhibition of purified aldose reductase (reduction of glucose to sorbitol, spectrophotometric); assay type: biochemical
T2 construct: purified aldose reductase is isolated in known manner from bovine lenses; from tissue; host or cells: bovine lens
Description: Thus, purified aldose reductase is isolated in known manner from bovine lenses. The percentage inhibition of these enzyme's ability in vitro to reduce aldoses to polyhydric alcohols, and particularly to reduce glucose to sorbitol, caused by a test compound is then determined using standard spectrophotometric methods. […] Thus, by way of illustration, 2-(2-fluoro-4-bromobenzyl)-1,2-dihydro-1-oxophthalazin-4-ylacetic acid has a Ki of 2.0×10^-8 M.

[2] = system: carageenin induced oedema; assay type: in vivo, rats; conditions: for overt toxicity: rat, in vivo; for inhibition of carageenin induced oedema: rats
Description: The compounds of the invention may therefore in addition be useful in the treatment of painful inflammatory joint diseases such as rheumatoid arthritis, osteoarthritis and ankylosing spondylitis. In this connection it is envisaged that they would be administered primarily orally at a daily dose in the range 10-50 mg./kg.

Structure (SMILES): O=C(O)Cc1nn(Cc2ccc(Br)cc2F)c(=O)c2ccccc12 [2-(2-fluoro-4-bromobenzyl)-1,2-dihydro-1-oxophthalazin-4-ylacetic acid]
- residual sorbitol level in the sciatic nerve, relative to control undosed diabetic rats (aldose reductase): approximately 60%
- Ki [1]: 20 nM
- overt toxicity [2]: without any sign of overt toxicity
- inhibition of carageenin induced oedema [2]: significant inhibition

Structure (SMILES): O=C(O)Cc1nn(Cc2ccc(Br)c(Cl)c2)c(=O)c2ccccc12 [2-(3-chloro-4-bromobenzyl)-1,2-dihydro-1-oxophthalazin-4-ylacetic acid]
- overt toxicity [2]: without any sign of overt toxicity
- inhibition of carageenin induced oedema [2]: significant inhibition
